Assay results: ChEMBL document CHEMBL1201862, “PubChem BioAssay data set” (2004)
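48-hour exposure; five concentrations; linearly interpolated endpoints. Abbreviation: GI50, concentration required for 50% inhibition of growth.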 Active and inactive are the calls of the source. Rule as the data show it: active = GI50 up to about 1.1 µM and inactive = higher.

How the values were obtained:
Assay in all cases: DTP human tumour cell line panel, 48 h
786-0 = test system: 786-0
A498 = test system: A498
A549 = test system: A549
ACHN = test system: ACHN
BT-549 = test system: BT-549
CAKI-1 = test system: CAKI-1
CCRF-CEM = test system: CCRF-CEM
COLO 205 = test system: COLO 205
DU-145 = test system: DU-145
EKVX = test system: EKVX
HCC 2998 = test system: HCC 2998
HCT-116 = test system: HCT-116
HCT-15 = test system: HCT-15
HL-60 = test system: HL-60
HOP-62 = test system: HOP-62
HOP-92 = test system: HOP-92
HT-29 = test system: HT-29
Hs-578T = test system: Hs-578T
IGROV-1 = test system: IGROV-1
K562 = test system: K562
KM12 = test system: KM12
LOX IMVI = test system: LOX IMVI
MCF7 = test system: MCF7
MDA-MB-231 = test system: MDA-MB-231
MDA-MB-435 = test system: MDA-MB-435
MDA-N = test system: MDA-N
MOLT-4 = test system: MOLT-4
Malme-3M = test system: Malme-3M
NCI-H226 = test system: NCI-H226
NCI-H23 = test system: NCI-H23
NCI-H460 = test system: NCI-H460
NCI-H522 = test system: NCI-H522
NCI/ADR-RES = test system: NCI/ADR-RES
OVCAR-3 = test system: OVCAR-3
OVCAR-4 = test system: OVCAR-4
OVCAR-5 = test system: OVCAR-5
OVCAR-8 = test system: OVCAR-8
PC-3 = test system: PC-3
RPMI-8226 = test system: RPMI-8226
RXF 393 = test system: RXF 393
SF-268 = test system: SF-268
SF-295 = test system: SF-295
SF-539 = test system: SF-539
SK-MEL-28 = test system: SK-MEL-28
SK-MEL-2 = test system: SK-MEL-2
SK-MEL-5 = test system: SK-MEL-5
SK-OV-3 = test system: SK-OV-3
SN12C = test system: SN12C
SNB-75 = test system: SNB-75
SR = test system: SR
SW-620 = test system: SW-620
T47D = test system: T47D
TK-10 = test system: TK-10
U-251 = test system: U-251
UACC-257 = test system: UACC-257
UACC-62 = test system: UACC-62
UO-31 = test system: UO-31

## Nc1nc(Cl)cc(NCC2(CO)COC2)n1
786-0
  GI50: > 100 µM (inactive)
A498
  GI50: > 100 µM (inactive)
A549
  GI50: > 100 µM (inactive)
ACHN
  GI50: > 100 µM (inactive)
BT-549
  GI50: > 100 µM (inactive)
CAKI-1
  GI50: > 100 µM (inactive)
CCRF-CEM
  GI50: > 100 µM (inactive)
COLO 205
  GI50: > 100 µM (inactive)
DU-145
  GI50: > 100 µM (inactive)
EKVX
  GI50: > 100 µM (inactive)
HCC 2998
  GI50: > 100 µM (inactive)
HCT-116
  GI50: > 100 µM (inactive)
HCT-15
  GI50: > 100 µM
HL-60
  GI50: > 100 µM (inactive)
HOP-62
  GI50: > 100 µM (inactive)
HOP-92
  GI50: > 10 µM (inactive)
HT-29
  GI50: > 100 µM (inactive)
Hs-578T
  GI50: > 100 µM (inactive)
IGROV-1
  GI50: > 100 µM (inactive)
K562
  GI50: > 100 µM (inactive)
KM12
  GI50: > 100 µM (inactive)
LOX IMVI
  GI50: > 100 µM (inactive)
MCF7
  GI50: > 100 µM (inactive)
MDA-MB-231
  GI50: > 100 µM (inactive)
MDA-MB-435
  GI50: > 100 µM (inactive)
MDA-N
  GI50: > 100 µM (inactive)
MOLT-4
  GI50: > 10 µM (inactive)
Malme-3M
  GI50: > 100 µM (inactive)
NCI-H226
  GI50: > 100 µM (inactive)
NCI-H23
  GI50: > 100 µM (inactive)
NCI-H460
  GI50: > 100 µM (inactive)
NCI-H522
  GI50: > 100 µM (inactive)
NCI/ADR-RES
  GI50: > 100 µM (inactive)
OVCAR-3
  GI50: > 100 µM (inactive)
OVCAR-4
  GI50: > 100 µM (inactive)
OVCAR-5
  GI50: > 100 µM (inactive)
OVCAR-8
  GI50: > 100 µM (inactive)
PC-3
  GI50: > 100 µM (inactive)
RPMI-8226
  GI50: > 100 µM (inactive)
RXF 393
  GI50: > 100 µM (inactive)
SF-268
  GI50: > 100 µM (inactive)
SF-295
  GI50: > 100 µM (inactive)
SF-539
  GI50: > 100 µM (inactive)
SK-MEL-28
  GI50: > 100 µM (inactive)
SK-MEL-2
  GI50: > 100 µM (inactive)
SK-MEL-5
  GI50: > 100 µM (inactive)
SK-OV-3
  GI50: > 100 µM (inactive)
SN12C
  GI50: > 100 µM (inactive)
SNB-75
  GI50: > 100 µM (inactive)
SR
  GI50: > 100 µM (inactive)
SW-620
  GI50: > 100 µM (inactive)
T47D
  GI50: 53.8 µM (inactive)
TK-10
  GI50: > 100 µM (inactive)
U-251
  GI50: > 100 µM (inactive)
UACC-257
  GI50: > 100 µM (inactive)
UACC-62
  GI50: > 100 µM (inactive)
UO-31
  GI50: > 100 µM (inactive)
